Test results from patent US7728040B1, “Polyamine conjugates as selective NMDA inhibitors and anti-cancer drugs” (University of Central Florids Research Foundation, Inc., priority 2002, dated 2010).
Counter-ions that a name gives are not always drawn. Like-named read-outs stand apart in the source and are kept apart here.

Assays:
NR1/NR2A NMDA receptor = NR1/NR2A NMDA receptor (Homo sapiens, UniProt Q05586+Q12879); test: Inhibition of NMDA receptor NR1/NR2A function; assay type: cell-based
CHO-MG cells = test: Cytotoxicity in CHO-MG cells (polyamine-transport deficient); assay type: cell-based, Chinese hamster; settings: Cricetulus griseus, read-out: CHO-MG IC50
CHO cells = test: Cytotoxicity in CHO cells (active polyamine transporter); assay type: cell-based, Chinese hamster; settings: for IC50: Cricetulus griseus, CHO, read-out: CHO IC50; for CHO-MG/CHO IC50 ratio: selectivity for cells with active polyamine transporter
polyamine transporter = test: Ki, affinity for the polyamine transporter in L1210 cells; assay type: binding, mouse
Description: Biological Evaluation. Three cell lines were chosen for bioassay. L1210 (mouse leukemia) cells were selected for comparison with the published IC50 and Ki values determined for a variety of polyamine substrates. In this regard both Ki and IC50 values were measured in this line for comparison purposes. Chinese hamster ovary (CHO) cells were chosen along with a mutant cell line (CHO-MG) in order to comment on polyamine transporter affinity and cell selectivity. The CHO-MG cell line is polyamine-transport deficient and was isolated after chronic selection for growth resistance to methylglyoxalbis (guanylhydrazone). For the purposes of this study, the CHO-MG cell line represents cells with limited polyamine transport activity. In contrast, the parent CHO cell line illustrates cell types with active polyamine transport. Comparison of efficacy in these two lines provided an important screen to detect conjugate delivery via the polyamine transporter, PAT. For example, a conjugate with high utilization of the transporter would be very toxic to CHO cells, but less so to CHO-MG cells. Therefore, IC50 determination in these two CHO lines provided a relative ranking of delivery via the PAT.

L1210 cells = test: Cytotoxicity in L1210 cells; assay type: cell-based; settings: Mus musculus
L1210 cells + DFMO = test: Cytotoxicity in L1210 cells pretreated with DFMO; assay type: cell-based, mouse; settings: for IC50: Mus musculus; for L1210/(L1210 + DFMO) IC50 ratio: fold more toxic in the presence of DFMO
[1] = polyamine-transport deficient line
[2] = L1210 cells, no DFMO, read-out: L1210 IC50
[3] = L1210 cells pretreated with DFMO, read-out: L1210 + DFMO IC50

Sequence of NR1/NR2A NMDA receptor (Q12879 23-1464, other chains not shown): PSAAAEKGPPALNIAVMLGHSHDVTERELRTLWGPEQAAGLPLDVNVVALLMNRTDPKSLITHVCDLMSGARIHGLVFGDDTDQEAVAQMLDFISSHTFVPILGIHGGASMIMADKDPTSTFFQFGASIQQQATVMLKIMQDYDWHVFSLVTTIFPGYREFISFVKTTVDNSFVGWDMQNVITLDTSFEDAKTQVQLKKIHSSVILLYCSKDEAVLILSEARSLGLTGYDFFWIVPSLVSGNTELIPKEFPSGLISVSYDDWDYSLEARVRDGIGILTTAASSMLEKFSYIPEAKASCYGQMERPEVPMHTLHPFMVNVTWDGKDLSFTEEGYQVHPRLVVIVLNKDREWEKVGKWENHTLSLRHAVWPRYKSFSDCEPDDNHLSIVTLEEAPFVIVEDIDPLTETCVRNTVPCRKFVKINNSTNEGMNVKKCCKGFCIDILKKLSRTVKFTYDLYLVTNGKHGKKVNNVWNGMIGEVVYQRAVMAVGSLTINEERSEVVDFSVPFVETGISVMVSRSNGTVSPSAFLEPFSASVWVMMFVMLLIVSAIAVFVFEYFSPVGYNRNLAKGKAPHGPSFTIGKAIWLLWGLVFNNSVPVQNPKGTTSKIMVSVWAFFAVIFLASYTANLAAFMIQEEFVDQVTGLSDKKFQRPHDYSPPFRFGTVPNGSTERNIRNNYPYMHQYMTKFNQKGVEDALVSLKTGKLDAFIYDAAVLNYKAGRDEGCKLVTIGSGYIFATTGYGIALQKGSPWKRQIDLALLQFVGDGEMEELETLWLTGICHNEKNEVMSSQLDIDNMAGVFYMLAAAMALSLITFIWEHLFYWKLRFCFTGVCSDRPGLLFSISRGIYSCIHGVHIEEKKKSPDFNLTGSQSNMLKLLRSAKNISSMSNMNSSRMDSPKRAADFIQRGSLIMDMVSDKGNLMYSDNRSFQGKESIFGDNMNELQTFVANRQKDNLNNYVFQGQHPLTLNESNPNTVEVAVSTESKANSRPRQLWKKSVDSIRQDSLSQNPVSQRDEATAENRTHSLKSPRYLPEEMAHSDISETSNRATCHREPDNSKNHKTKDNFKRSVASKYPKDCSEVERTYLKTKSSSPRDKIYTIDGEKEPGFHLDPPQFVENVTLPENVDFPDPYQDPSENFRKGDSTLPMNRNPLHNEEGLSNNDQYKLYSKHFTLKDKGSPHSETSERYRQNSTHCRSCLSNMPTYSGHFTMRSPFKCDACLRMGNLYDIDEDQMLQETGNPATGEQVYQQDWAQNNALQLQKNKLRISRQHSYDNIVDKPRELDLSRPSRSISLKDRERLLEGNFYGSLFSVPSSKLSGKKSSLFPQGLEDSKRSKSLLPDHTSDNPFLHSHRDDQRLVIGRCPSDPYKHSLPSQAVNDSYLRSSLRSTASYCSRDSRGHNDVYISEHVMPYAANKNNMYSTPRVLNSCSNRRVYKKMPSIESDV

SMILES	IC50 for NR1/NR2A (NR1/NR2A NMDA receptor)	NMDA receptor (NR1A/NR2A) function at the highest dose (NR1/NR2A NMDA receptor)	IC50 (CHO-MG cells; [1])	IC50 (CHO cells; active polyamine transporter)	CHO-MG/CHO IC50 ratio (CHO cells)	Ki (polyamine transporter)	IC50 (L1210 cells; [2])	IC50 (L1210 cells + DFMO; [3])	L1210/(L1210 + DFMO) IC50 ratio (L1210 cells + DFMO)	CHO-MG/CHO IC50 ratio (CHO cells; listed as 27c, Trihydrochloride)	CHO-MG/CHO IC50 ratio (CHO cells; trihydrochloride)	IC50 (CHO-MG cells)	IC50 (CHO cells)	IC50 (L1210 cells; L1210, read-out: L1210 IC50)	IC50 (L1210 cells + DFMO; L1210, read-out: L1210 + DFMO IC50)	IC50 (NR1/NR2A NMDA receptor)
c1ccc2cc3ccccc3cc2c1 [Anthracene]	no effect	greater than 85%	–	–	–	–	–	–	–	–	–	–	–	–	–	–
Cl.Cl.Cl.NCCCN(CCCN)Cc1c2ccccc2cc2ccccc12 [Compound 8b, N-(3-Amino-propyl)-N-anthracen-9-ylmethyl-propane-1,3-diamine, trihydrochloride]	–	–	3.4 µM	1.9 µM	1.8	33.4 µM	1.8 µM	1.4 µM	1.3	–	–	–	–	–	–	–
Cl.Cl.Cl.NCCCCNCCCNCc1c2ccccc2cc2ccccc12 [Compound 8c, N^1-{3-[(Anthracen-9-ylmethyl)-amino]-propyl}-butane-1,4-diamine, trihydrochloride]	–	–	8.8 µM	2.5 µM	3.5	2.5 µM	0.7 µM	0.3 µM	2.3	–	–	–	–	–	–	–
Cl.Cl.Cl.NCCCCN(CCCN)Cc1c2ccccc2cc2ccccc12 [Compound 8d, N-(3-Amino-propyl)-N-anthracen-9-ylmethyl-butane-1,4-diamine, trihydrochloride]	–	–	9.5 µM	0.4 µM	24	6.2 µM	0.4 µM	0.2 µM	2	–	–	–	–	–	–	–
Cl.Cl.Cl.NCCCCCN(CCCN)Cc1c2ccccc2cc2ccccc12 [Compound 8f, N-(3-Amino-propyl)-N-anthracen-9-ylmethyl-pentane-1,5-diamine, trihydrochloride]	–	–	10.1 µM	4.1 µM	2.5	5 µM	1.3 µM	0.7 µM	1.9	–	–	–	–	–	–	–
Cl.Cl.Cl.NCCCCCN(CCCCN)Cc1c2ccccc2cc2ccccc12 [Compound 8g, N-(4-Amino-butyl)-N-anthracen-9-ylmethyl-pentane-1,5-diamine, trihydrochloride]	–	–	57.3 µM	1.5 µM	38	1.7 µM	0.4 µM	0.3 µM	1.3	–	–	–	–	–	–	–
NCCCCNCCCNCCCNCc1c2ccccc2cc2ccccc12 [Compound 13a, N^1-{3-[3-(Anthracen-9-ylmethyl)-amino]-propylamino}-butane-1,4-diamine Tetrahydrochloride]	–	–	41.5 µM	44 µM	0.9	0.107 µM	21.8 µM	21.9 µM	1	–	–	–	–	–	–	–
Cl.Cl.Cl.Cl.NCCCCCN(CCCCN)CCCNCc1c2ccccc2cc2ccccc12 [Compound 13d, N-(4-Amino-butyl)-N-{3-[(anthracen-9-ylmethyl)-amino]-propyl}-pentane-1,5-diamine Tetrahydrochloride]	–	–	41.7 µM	35 µM	1.2	0.09 µM	10.7 µM	7.2 µM	1.5	–	–	–	–	–	–	–
Cl.Cl.Cl.Cl.NCCCCN(CCCCNCCCN)Cc1c2ccccc2cc2ccccc12 [Compound 13e, N-[4-(3-Amino-propylamino)-butyl]-N-anthracen-9-ylmethyl-butane-1,4-diamine Tetrahydrochloride]	–	–	2.8 µM	4 µM	0.7	0.074 µM	4.3 µM	0.6 µM	7.2	–	–	–	–	–	–	–
Cl.Cl.Cl.Cl.NCCCCNCCCCN(CCCCN)Cc1c2ccccc2cc2ccccc12 [Compound 13f, N-[4-(4-Amino-butylamino)-butyl]-N-anthracen-9-ylmethyl-butane-1,4-diamine Tetrahydrochloride]	–	–	33.2 µM	10.6 µM	–	0.051 µM	7.5 µM	1.6 µM	4.7	–	–	–	–	–	–	–
Cl.Cl.Cl.Cl.NCCCCCN(CCCCNCCCN)Cc1c2ccccc2cc2ccccc12 [Compound 13g, N-[4-(3-Amino-propylamino)-butyl]-N-anthracen-9-ylmethyl-pentane-1,5-diamine Tetrahydrochloride]	–	–	33.5 µM	18 µM	1.9	0.099 µM	6.4 µM	2.1 µM	3	–	–	–	–	–	–	–
Cl.Cl.Cl.Cl.NCCCCCN(CCCCNCCCCN)Cc1c2ccccc2cc2ccccc12 [Compound 13h, N-[4-(4-Amino-butylamino)-butyl]-N-anthracen-9-ylmethyl-pentane-1,5-diamine Tetrahydrochloride]	–	–	30.8 µM	9.9 µM	–	0.065 µM	7.2 µM	3.8 µM	1.9	–	–	–	–	–	–	–
Cl.Cl.Cl.Cl.NCCCCCN(CCCCCNCCCCN)Cc1c2ccccc2cc2ccccc12 [Compound 13i, N-[5-(4-Amino-butylamino)-pentyl]-N-anthracen-9-ylmethyl-pentane-1,5-diamine Tetrahydrochloride]	–	–	5.7 µM	4 µM	1.4	0.064 µM	7.1 µM	4.3 µM	1.7	–	–	–	–	–	–	–
Cl.Cl.Cl.NCCCCNCCCCNCc1ccccc1 [Compound 27a, N-(4-Amino-butyl)-N′-benzene-1-ylmethyl-butane-1,4-diamine Trihydrochloride]	–	–	> 1000 µM	> 1000 µM	–	4.5 µM	36.3 µM	421 µM	0.1	–	–	–	–	–	–	–
Cl.Cl.Cl.NCCCCNCCCCNCc1cccc2ccccc12 [Compound 27b, N-(4-Amino-butyl)-N′-naphthalen-1-ylmethyl-butane-1,4-diamine Trihydrochloride]	–	–	> 100 µM	0.6 µM	–	3.8 µM	0.5 µM	0.43 µM	1.1	>164	> 164	–	–	–	–	–
Cl.Cl.Cl.NCCCCNCCCCNCc1ccc2ccc3cccc4ccc1c2c34 [Compound 27d, N-(4-Amino-butyl)-N′-pyren-1-ylmethyl-butane-1,4-diamine Trihydrochloride]	–	–	–	–	34	2.9 µM	–	–	1.1	–	–	15.5 µM	0.46 µM	0.4 µM	0.36 µM	–
Cl.Cl.Cl.NCC(O)CNCCCCNCc1c2ccccc2cc2ccccc12 (stereo not shown) [Compound 30, 1-Amino-3-{4-[(anthracen-9-ylmethyl)-amino]-butylamino}-propan-2-ol Trihydrochloride]	–	–	9.5 µM	9.1 µM	1	12.5 µM	1.5 µM	2.3 µM	0.7	–	–	–	–	–	–	–
Cl.Cl.Cl.NC1CCC(NCCCCNCc2c3ccccc3cc3ccccc23)CC1 (stereo not shown) [Compound 31, N-{4-[(Anthracen-9-ylmethyl)-amino]-butyl}-cyclohexane-1,4-diamine Trihydrochloride]	–	–	17.4 µM	2.5 µM	7	3.8 µM	1 µM	0.7 µM	1.4	–	–	–	–	–	–	–
Cl.Cl.NCCCCCCCCNCc1c2ccccc2cc2ccccc12 [Compound 32, N^1-Anthracen-9-ylmethyl-octane-1,8-diamine Dihydrochloride]	–	–	4.9 µM	4.9 µM	1	13.3 µM	3 µM	4.6 µM	0.7	–	–	–	–	–	–	–
Cl.Cl.NCCOCCOCCNCc1c2ccccc2cc2ccccc12 [Compound 33, 2-(2-{2-[(Anthracen-9-ylmethyl)-amino]-ethoxy}-ethoxy)-ethylamine Dihydrochloride]	–	–	15.9 µM	12.6 µM	1.3	90 µM	11.3 µM	17 µM	0.7	–	–	–	–	–	–	–
Cl.Cl.NCCCCNCc1c2ccccc2cc2ccccc12 [Compound 34, N^1-Anthracen-9-ylmethyl-butane-1,4-diamine Dihydrochloride]	–	–	7.6 µM	7.7 µM	1	32.2 µM	6.3 µM	9.78 µM	0.7	–	–	–	–	–	–	–
CCCCNCc1c2ccccc2cc2ccccc12 [Compound 35, N^1-Anthracen-9-ylmethyl-butylamine Monohydrochloride]	–	–	11.2 µM	10.5 µM	1.1	62.3 µM	14.6 µM	21.9 µM	0.7	–	–	–	–	–	–	–
NCCCNCCCCNCCCN [Spermine]	–	–	–	–	–	–	–	–	–	–	–	–	–	–	–	519 µM
